Assay: gradient 5% acetonitrile 3 min, to 50% in 2 min, to 85% in 15 min, held 3 min, 100 µL/min
Conditions: column: Zorbax Extend-C18 2.1 x 50 mm; eluents: water / acetonitrile, 0.1% formic acid
Method in brief: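 Over 3 months, pure standards in mixtures of ~100 molecules were run by HPLC coupled to a quadrupole time-of-flight mass spectrometer in positive and negative ionization mode. The column was a Zorbax Extend-C18 (2.1 × 50 mm, 1.8 μm) at 100 μL/min, eluted with water and acetonitrile each holding 0.1% formic acid, with 40 μL dead and 900 μL dwell volumes. Retention time was determined from adduct peaks chosen by software and checked manually.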

| SMILES | RP-LC retention time [s] |
| --- | --- |
| Cc1ccc(-c2nnc(Cc3nc(-c4ccccc4)no3)o2)cc1F | 1050 |
| CC(=O)c1ccc(N2C(=O)Cn3cccc3C2C(=O)NC2CCC(C)CC2)cc1 (centres undefined) | 869 |
| Cc1ccc(C)c(N2CCN(S(=O)(=O)c3cc(-c4cc(C(F)(F)F)[nH]n4)sc3C)CC2)c1 | 1300 |
| CCCCn1cc(S(=O)(=O)Nc2ccc(Cl)cc2F)c2cccnc21 | 1020 |
| Cc1ccccc1CNC(=O)C1CCCN(c2nccnc2Sc2ccccc2)C1 (centres undefined) | 1200 |
| CCOc1cccc(-c2noc(Cn3c(=O)n(Cc4ccccc4)c(=O)c4sccc43)n2)c1 | 1160 |
| CCn1cc(C)c(C(=O)O)c1CC(=O)Nc1ccc(C)cn1 | 680 |
| Cc1ccc(NS(=O)(=O)c2ccc(-c3nnc(C4CCC4)o3)o2)c(F)c1 | 925 |
| CCOc1ccc(S(=O)(=O)N2CCC(C(=O)Nc3ccc4c(c3)OCCO4)CC2)cc1 | 903 |
| COc1c(C)c2c(c(O)c1C/C=C(\C)CCC(=O)O)C(=O)OC2 | 800 |
| O=C(Cc1ccc(F)cc1)NCCOc1cccc(C(F)(F)F)c1 | 880 |
| Cc1cc(C)c2nc(Nc3nccc(C)n3)nc(C)c2c1 | 640 |
| Cc1c(C(=O)N2CCN(c3ccc(Cl)cc3)CC2)sc2nc[nH]c(=O)c12 | 769 |
| Cc1ccc(-c2c(N3CCN(c4ccccn4)CC3)c(=O)c2=O)cc1 | 660 |
| Cc1cc(C)cc(-c2nc(-c3ccc4c(c3)nnn4CCC(=O)N3CCCC3)no2)c1 | 1090 |
| CSc1nnc(NC(=O)c2ccccc2[N+](=O)[O-])s1 | 672 |
| O=[N+]([O-])c1ccc(CSc2nc3ccccc3o2)cc1 | 1020 |
| CCN(CC)c1ccc(NC(=O)C2CC(=O)N(c3cccc(NC(C)=O)c3)C2)c(C)c1 (centres undefined) | 573 |
| O=C(O)c1cc2cc(OCc3ccccc3)ccc2[nH]1 | 903 |
| COc1ccc(CC(=O)Nc2ccc3c(c2)Sc2ncccc2C(=O)N3C)c(Cl)c1 | 804 |
| Cc1ccc(-c2nnc(Cc3nc(-c4ccc5c(c4)OCO5)no3)o2)cc1F | 1020 |
| Cc1cccc(N(C)C(=O)Cn2c(=O)n(-c3ccc(F)cc3)c(=O)c3c2cc(C)n3C)c1 | 888 |
| CCN(CC)CCOc1ccccc1/C=C/c1noc2ccccc12 | 724 |

| SMILES | RP-LC retention time [s] |
| --- | --- |
| Cc1cc(C)n(-c2ccnc(NCc3ccc(Cl)cc3)n2)n1 | 928 |
| CC(C)CC(=O)N1CCc2c(c(C(=O)NCc3ccc4c(c3)OCO4)nn2C)C1 | 745 |
| Cn1c(N2CCN(C(=O)c3ccc(F)c(F)c3)CC2)cc(=O)n(C)c1=O | 656 |
| COc1ccc(-c2nc(C)cc(C)c2CNS(=O)(=O)c2ccc(OC)cc2)cc1 | 643 |
| O=[N+]([O-])c1ccccc1S(=O)(=O)c1ccccc1[N+](=O)[O-] | 840 |
| COCCN1C(=O)[C@H]2CN(Cc3ccc(OC)c(Br)c3)C[C@H]2C1=O | 616 |
| COc1ccc(-c2cn3c(CC(=O)NCc4cccc(Br)c4)csc3n2)cc1OC | 764 |
| COCCNC(=O)C1CCN(S(C)(=O)=O)c2cc(Cl)ccc2O1 (centres undefined) | 710 |
| O=C(Cn1nc2c(N3CCSCC3)nccn2c1=O)NCCc1ccc(Cl)cc1 | 850 |
| CC1=C(c2ccccc2)S(=O)(=O)N=C1N1CCCN(C(=O)CCC2CCCC2)CC1 | 946 |
| Cc1nc(-c2csc(S(=O)(=O)N3CCC(C(=O)NCc4ccc(F)cc4)CC3)c2)no1 | 981 |
| COc1ccccc1-c1nc(Cn2cccc(S(=O)(=O)N3CCCC3)c2=O)no1 | 736 |
| Cc1ccc(Cn2c(CN3CCC(C(=O)NC(C)C)CC3)cc3ccccc32)cc1 | 747 |
| Cc1ccc(Nc2nc(C(=O)NC(C)Cc3ccco3)nc3ccccc23)cc1 (centres undefined) | 873 |
| Cc1nnc2c(NC(=O)c3cnccn3)cccn12 | 600 |
| CCc1ccc(-n2nnc(C(=O)N3CCC4(CC3)OCCO4)c2-c2ccncc2)cc1 | 766 |
| O=C(Nc1cccc(Br)c1)C(=O)c1c[nH]c2ccccc12 | 1060 |
| COc1ccc2c(c1)C1(CCN(C(=O)Cc3cccc(F)c3)C1)C(=O)N2 (centres undefined) | 740 |
| CCOC(=O)COC(=O)c1cn(-c2cccc(F)c2)c(=O)c2ccccc12 | 1020 |
| O=C(Nc1ccccc1Br)c1c(O)c2cccc3c2n(c1=O)CC3 | 1240 |
| CN(C)C(=O)c1cccc2c1CCN2C(=O)c1ccccc1 | 706 |
| CS(=O)(=O)N(Cc1ccncc1)C1CN(S(=O)(=O)c2ccccc2)C1 | 595 |
| Cn1ncc2c(N3CCSCC3)nc(C(=O)N3CCN(c4ccc(F)cc4)CC3)nc21 | 841 |

| SMILES | RP-LC retention time [s] |
| --- | --- |
| CCNC(=O)N1CCc2c([nH]c3ccc(OC)cc23)C12C(=O)N(C)c1ccccc12 (centres undefined) | 984 |
| Cn1nc(-c2nc(-c3ccc(F)cc3)no2)c2c1CCN(C(=O)NC1CCCCC1)C2 | 979 |
| Cc1cccc(CNS(=O)(=O)c2cc(-c3[nH]ncc3C(=O)N3CCCC3)oc2C)c1 | 744 |
| Cc1cc(N2CCN(C)CC2)nc2ccc(NC(=S)N3CCN(c4ccc(F)cc4)CC3)cc12 | 606 |
| Cc1ccc(C)c(CNC(=O)Cc2csc3nc(-c4ccc(C)c(C)c4)cn23)c1 | 930 |
| O=S(=O)(Cc1cccc(Cl)c1)N1CCc2nc[nH]c2C1 | 616 |
| CCN1C(=O)COc2ccc(-c3nc(NC(=O)c4ccccc4Cl)sc3C)cc21 | 1000 |
| Cc1[nH]c(C)c(S(=O)(=O)N2CCC(C(=O)Nc3ccc(F)cc3)CC2)c1C(=O)N1CCCC1 | 710 |
| COc1ccccc1-n1ccn2cc(-c3ccc(F)cc3)nc2c1=O | 783 |
| O=C(Cc1csc2nc(-c3ccccc3)cn12)N1CCN(c2ccccc2)CC1 | 820 |
| COc1ccc(-c2cn3cccnc3n2)cc1NC(=O)c1cccc(Cl)c1 | 740 |
| CN(C)c1ccc(/C=C/C(=O)c2ccccc2)cc1Br | 1170 |
| O=C(NCCNC(=O)c1ccc2c(c1)OCO2)c1ccc(NC(=O)C2CC2)cc1 | 650 |
| O=c1n(Cc2ccc3c(c2)OCO3)nc2c(S(=O)(=O)N3CCCC3)cccn12 | 783 |
| O=C(C1CCN(S(=O)(=O)c2cc(-c3noc(C4CC4)n3)cs2)CC1)N1CCOCC1 | 793 |
| CCSc1nc2ccc(NS(=O)(=O)c3cccc(Cl)c3)cc2s1 | 1070 |
| CCCCN1C(=O)C(CC(=O)NC2CCCC2)Sc2ncccc21 (centres undefined) | 808 |
| Cc1cccc(-c2nc(Cn3nnc(-c4nc(-c5ccc(Cl)cc5)no4)c3C)c(C)o2)c1 | 1320 |
| CCOc1cc(C(=O)Nc2cc(-c3cn4cccnc4n3)ccc2OC)cc(OCC)c1OCC | 831 |
| CN(C)c1ccc(C(=O)N2CCC(c3cc(N)on3)CC2)cc1 | 614 |
| Cc1ccn(CC(=O)NC2CCN(c3ccc(=O)n(CC4CC4)n3)C2)n1 (centres undefined) | 631 |
| CCNC(=O)C1CCCN1C(=O)Nc1ccccc1 (centres undefined) | 619 |
| COc1cccc(-c2noc(CN3C(=O)COc4cc(C)ccc43)n2)c1 | 1050 |

| SMILES | RP-LC retention time [s] |
| --- | --- |
| COC(=O)CNC(=O)Nc1ncc(-c2ccc(OC)cc2)n1C | 607 |
| CCC(C)(C)NC(=O)C1CCN(S(=O)(=O)c2ccc3c(c2)NC(=O)CO3)CC1 | 745 |
| Cc1nc(-c2noc(-c3ccccc3)n2)cn1CC(=O)NCc1ccc(F)c(Cl)c1 | 866 |
| CCC1CN1P(=O)(Oc1ccc(Cl)cc1)N1CC1CC (centres undefined) | 980 |
| Cn1nc(C(=O)N2CCOCC2)c2c1CN(C(=O)Cc1ccsc1)C2 | 640 |
| Cc1cc(OCC(=O)N[C@@H](C)C(=O)O)c2c3c(c(=O)oc2c1)CCCC3 | 746 |
| CCc1cc(C2CCCN2Cc2cc(OC)c(O)c(OC)c2)on1 (centres undefined) | 575 |
| CNC(=O)Nc1ccc(C2(C(=O)NC3CCCC3)CCC2)cc1 | 692 |
| CCC(C)NC(=O)CN1C(=O)C2CCCCN2c2ccc(S(=O)(=O)N3CCCC3)cc21 (centres undefined) | 850 |
| Cc1ccc(CNC(=O)C2CCCN(c3nnc4ccccn34)C2)o1 (centres undefined) | 649 |
| O=C(Nc1ccc2c(c1)OCCO2)[C@@H]1COCC(=O)N1Cc1ccc(F)cc1 | 765 |
| CCCCN1CCN(C(=O)C2c3ccccc3CCN2C(=O)CC)CC1 (centres undefined) | 626 |
| Cc1cccc(C)c1Nc1c(-c2ccc(F)cc2)nc2cnccn12 | 901 |
| COCCCNC(=O)C1(C)Cn2nc(-c3ccccc3)cc2C(=O)N1Cc1ccc(OC)cc1 (centres undefined) | 865 |
| O=C(NCC1(N2CCOCC2)CCOC1)Nc1cc(F)ccc1F (centres undefined) | 592 |
| COc1ccc(C(=O)N2CCC(n3c(-c4ccoc4)nc4cccnc43)C2)cc1F (centres undefined) | 714 |
| COc1ccc2c(c1)CCc1sc(NC(=O)c3ccc(F)cc3)nc1-2 | 1140 |
| COc1cccc(CNC(=O)NCCc2nc3cccnc3n2Cc2ccccc2)c1 | 723 |
| CSc1ccc(CCNC(=O)Cn2c(=O)c3cccn3c3ccc(F)cc32)cc1 | 897 |
| O=C(Nc1cccn2nc(C3CCC3)nc12)c1ccccn1 | 961 |

Reference: the METLIN SMRT retention time set (Domingo-Almenara et al. 2019)
